Test [1] concerns St-domain/STAT binding activity. As to the kind of experiment: Electrophoretic gel mobility-shift assay of St-domain/STAT binding in heart nuclear extracts. The arrangement: species or system rat. To be noted: hearts, 30 min ischemia/120 min reperfusion. The source says: Nuclear extracts were examined in hearts subjected to global ischemia to determine whether there is enhanced STAT binding activity to the St domain of the angiotensinogen promoter. The nuclear heart extracts were examined by the electrophoretic gel mobility-shift assay that exployed the use of the chemically synthesized oligonucleotide sequence of the St domain. The St-domain DNA probe for protein binding was a double-stranded oligonucleotide containing the sequence 5′-GGGTtcCTGGAAGGG-3′ SEQ. ID NO: 2, and complementary strand 5′-CCCTTCCAGgaACCC-3′ SEQ. ID NO: 3, respectively. These probes were end-labeled by polynucleotide kinase and [γ-^32P]ATP. Binding reaction mixture containing 0.5 ng of labeled DNA (1,000 cpm), 2 μg of poly(dI-C), and 1-12 μg of protein in buffer containing 20 mM Hepes, 3% glycerol, 1.5 mM MgCl2, 1 mM DTT, 2 mM EDTA and 50 mM KCl, pH 7.5 was allowed to incubate at 4° C. for 30 min. The reactions were analyzed by electrophoresis on 8% polyacrylanide gel in 0.375× TBE ([…] Tris borate, pH 8.7 and 1.0 mM EDTA). After electrophoresis, the gels were dried and subjected to autoradiography. […] (FIG. 5B). The activation of STATs and the consequent binding to the St-domain in the angiotensinogen promoter accounts for the increase in transcription of angiotensinogen mRNA. […]

For the next test, the system named is cardiomyocytes. The test is described as follows: Cardiomyocyte apoptosis by TUNEL after ischemia/reperfusion. The arrangement: species or system rat. To be noted: FIG. 4C. The procedure:
Immunohistochemical detection of apoptotic cells was carried out by use of terminal dUTP nick end-labeling (TUNEL), in which residues of digoxigenin-labeled dUTP are catalytically incorporated into the DNA by terminal deoxynucleotidyl transferase II. The cells were incubated with a sheep polyclonal anti-digoxigenin antibody followed by a FITC-conjugated rabbit anti-sheep IgG as a secondary antibody. The heart sections were washed in PBS 3 times, blocked with normal rabbit serum, and incubated with mouse monoclonal antibody recognizing cardiac myosin heavy chain (Biogenesis Ltd) followed by staining with TRIRC-conjugated rabbit anti-mouse IgG ([…] dilution, Dalco, Japan). The fluorescence staining was viewed with a confocal laser microscope (Olympus Co). The apoptoic cells were counted and expressed as percentage of total myocyte population. Ischemia was induced by a modified Langendorf-reperfusion method in rat hearts. Hearts from adult male rats were randomly divided into 4 groups and subjected to ischemia/reperfusion. In the ischemic group, hearts were perfused with Krebs-Henseleit buffer for 60 minutes, followed by 30 minutes of global ischemia. In the ischemic/reperfused group, hearts were perfused for 60 minutes, followed by 30 minutes of global ischemia and 120 minutes of reperfusion. Control group hearts were perfused for the same lengths of time.

A further test has as its target Jak2 (Homo sapiens, UniProt O60674). The conditions noted are these: cited from earlier work.
Another test deals with angiotensinogen mRNA. As to the kind of experiment: Angiotensinogen mRNA expression in vivo in rat liver (northern blot). The conditions noted are these: daily treatment to achieve 5 μM systemically, 10 days. On the procedure:
Tyrphostin AG490 was administered to rats in vivo. A subcutaneous pump was surgically placed with a catheter extended intraperitoneally. Rats were daily treated with tyrphostin AG490 to achieve a 5 μM concentration systemically. After 10 days, the animals were euthanized using approved animal protocols and the liver collected to isolate RNA. The isolated RNA was used to perform a northern blot and the nitrocellulose membrane was probed with the rat angiotensinogen cDNA. Loading control was performed using GAPDH as probe.

In test [2] the test system is spontaneously hypertensive rats. The test is described as follows: Blood pressure in spontaneously hypertensive rats. Format: in vivo, rat. The conditions noted are these: 5 micromoles, FIG. 9. On the procedure:
Adult spontaneously hypertensive rats, which are genetically predisposed to hypertension, and normotensive rats were anesthetized with pentobarbital sodium (65 mg/kg ip) in preparation for surgery. […] Teflon arterial catheter (ID […]) was inserted into the left femoral artery. The catheter was tunneled under the skin and exited at the nape of the rat's neck and connected to a 26 G needle capped on a port and flushed with 1:3 heparin saline. The rats were housed individually after surgery, and allowed 48 hours to recover from the operation. Systolic and diastolic blood pressure were directly measured using the connection to the port placed in the rat's neck to a manual transducer.

The subject of the next test is male C57/BL6 mice. The test is described as follows: Transverse aortic constriction (TAC) induced left ventricular hypertrophy in mice. It is filed as in vivo. The procedure: Pressure overload was produced by transverse aortic constriction (TAC) to induce left ventricular hypertrophy (FIG. 1). Briefly, male C57/BL6 mice, weighing 20 to 24 grams, were anesthetized by intra-peritoneal injection of a cocktail of ketamine (100 mg/kg) and xylazine ([…]). The mice were shaved, restrained, and orally intubated (under direct vision via a vertical cervical incision) using a 22 guage blunt feeding needle. Respiration was artificially controlled (tidal volume of 0.1 to 0.3 ml) at a respiratory rate of 110 to 150 breaths/minute using a ventilator (Harvard Apparatus Rodent Ventilator, model 683). A median sternotomy was performed and the sternum retracted. The thymus was retracted anteriorly and the aortic arch identified and ligated (using 8.0 nylon suture; Ethicon) between the innominate and left common carotid artery with an overlying 27-guage needle; and then the needle removed to leave a discrete region of stenosis. The chest was then closed in two layers (using 6.0 vicryl suture, Ethicon) and the pneumothorax evacuated. Some mice were subjected to a sham operation in which the aortic arch was visualized but not banded. The mice were then extubated and monitored post-op for 3 to 12 hours. The survival rate at the end of the learning period is greater than 90%.
Nine days post-op, the hearts were removed from heparinized (500 U) mice and euthanized with a lethal dose of pentobarbital (150 mg/kg). The hearts were analyzed by visual inspection of a cross-section of the heart (FIG. 2A), determination of heart to body weight ratio (FIG. 2B), and light microscopy of the cardiomyocytes in the left ventricular (FIG. 2C), and activation of artiel natuiretic factor (ANF), a specific molecular marker for hypertrophy (FIG. 3). Based on these determinations, all trans-aortic constricted mice developed well-defined left ventricular hypertrophy.
To determine whether tyrphostin AG490 could reverse the hypertrophy induced by traverse aortic constriction, tyrphostin AG490 (5 μM) was administered to the mice, intra-peritoneal, 24 hours before being subjected to transverse aortic constriction and every 24 hours thereafter for the duration of the study (9 days).

In test [3] the test system is hearts subjected to ischemia/reperfusion. The conditions noted are these: cited from earlier work.

“Also recorded” adds a separate entry of the source. Where two headings read alike, the source gives them in different places.

Jak2, sequence (O60674 whole entry, species assumed): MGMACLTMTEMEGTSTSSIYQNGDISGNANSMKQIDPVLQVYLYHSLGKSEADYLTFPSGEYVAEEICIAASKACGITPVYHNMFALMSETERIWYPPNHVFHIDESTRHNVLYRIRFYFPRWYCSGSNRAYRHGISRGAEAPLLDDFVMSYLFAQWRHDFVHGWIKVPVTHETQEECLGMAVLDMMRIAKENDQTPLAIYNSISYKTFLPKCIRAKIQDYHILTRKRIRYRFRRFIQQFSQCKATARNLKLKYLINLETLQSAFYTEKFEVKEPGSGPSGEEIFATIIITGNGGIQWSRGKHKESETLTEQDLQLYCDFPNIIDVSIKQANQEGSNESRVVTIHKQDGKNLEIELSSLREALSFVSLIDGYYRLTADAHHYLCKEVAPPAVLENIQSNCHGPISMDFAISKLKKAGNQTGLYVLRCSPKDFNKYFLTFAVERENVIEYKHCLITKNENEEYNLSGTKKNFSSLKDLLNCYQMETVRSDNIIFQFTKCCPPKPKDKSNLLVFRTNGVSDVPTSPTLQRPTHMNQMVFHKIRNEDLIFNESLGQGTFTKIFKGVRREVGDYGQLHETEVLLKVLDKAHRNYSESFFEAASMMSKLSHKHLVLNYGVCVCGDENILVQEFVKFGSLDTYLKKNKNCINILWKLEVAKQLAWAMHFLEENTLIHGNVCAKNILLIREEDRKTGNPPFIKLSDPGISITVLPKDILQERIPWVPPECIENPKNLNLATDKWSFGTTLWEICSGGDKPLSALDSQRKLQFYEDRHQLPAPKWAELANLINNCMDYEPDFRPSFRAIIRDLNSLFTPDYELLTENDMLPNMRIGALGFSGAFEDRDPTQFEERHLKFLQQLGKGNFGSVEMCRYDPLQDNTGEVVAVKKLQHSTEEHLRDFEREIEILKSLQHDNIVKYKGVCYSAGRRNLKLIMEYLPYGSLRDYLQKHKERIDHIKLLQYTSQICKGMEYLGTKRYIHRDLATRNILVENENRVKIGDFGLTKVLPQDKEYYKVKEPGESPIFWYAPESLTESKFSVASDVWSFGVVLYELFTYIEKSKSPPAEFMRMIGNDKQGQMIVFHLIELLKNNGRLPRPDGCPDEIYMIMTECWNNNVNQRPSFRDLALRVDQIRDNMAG

Turning to `N#C/C(=C\c1ccc(O)c(O)c1)C(=O)NCc1ccccc1` [tyrphostin AG490], in test [1], the “St-domain/STAT binding activity (STAT/DNA complex formation)” value is “total loss of STAT/DNA complex formation; also recorded: reduction of St-domain/STAT binding activity”. In addition, in the test on cardiomyocytes, the “apoptotic cell death of cardiomyocytes” value is listed as “marked lowering of apoptotic cell death; also recorded: reduction of apoptosis of cardiomyocytes”. The “Jak2 inhibition, selectivity” value is “selectively inhibits Jak2” on Jak2 (listed as AG490); “selective, specific, and potent” on Jak2 (listed as Tyrphostin AG490). For the same molecule, in the test with angiotensinogen mRNA, the “expression of angiotensinogen gene product mRNA” value was “abolished the expression of angiotensinogen gene product mRNA; also recorded: attenuation of angiotensinogen mRNA expression”. Moreover, the blood pressure entry in test [2] is recorded as “effective in lowering blood pressure to normal levels; also recorded: attenuation of hypertension”. In addition, the “reversal of hypertrophy induced by transverse aortic constriction” value in the test with male C57/BL6 mice (5 μM intra-peritoneal, 24 h before TAC and every 24 h for 9 days) was “remarkable reversal of hypertrophy”. For the same molecule, the “LVH by visual inspection of cross section of the heart” value in the test with male C57/BL6 mice (FIG. 2A, TAC mice) is recorded as “decrease in LVH”. For the same molecule, the “ratio of heart weight to body weight” value in the test with male C57/BL6 mice (FIG. 2B, TAC mice) is on record as “decrease in ratio of heart weight to body weight”. Also, the “hypertrophy of cardiomyocytes of left ventricle by light microscopy” value in the test with male C57/BL6 mice (FIG. 2C, TAC mice) is “decrease in hypertrophy”. Besides, in the test with male C57/BL6 mice (FIG. 3, during cardiac hypertrophy), the “ANF (atrial natriuretic factor, marker for hypertrophy)” value is “ANF inhibition”. Further, in test [3], the “cardioprotection / myocardial damage due to ischemia” value is “afford cardioprotection”.

The values are drawn from patent publication US7235588B2, “Method for reducing hypertension and heart failure” (The Research Foundation of State University of New York, priority 2001, dated 2007).
